This is an account of results in US7282491B2, “Prokaryotic proteasomal proteases of Mycobacterium tuberculosis (MTB) as targets for antibiotic therapy” (Cornell Research Foundation, Inc., priority 2002, dated 2007).

One test has as its system tubercle bacilli. Conditions: cited from earlier work.
Test [1] deals with wt Mtb. Type of test: cell-based, Mycobacterium tuberculosis. Conditions: for augmentation of anti-mycobacterial activity of nitrite, inhibitor added along with nitrite at day 0: pH 6.5.
Test [2] relates to wt Mtb. It counts as cell-based, Mycobacterium tuberculosis.
Test [3] relates to wt Mtb.
Another test deals with mycobacterial proteasome (Mycobacterium tuberculosis, UniProt P9WHT9). Conditions: tetrapeptide substrate, 0.05% SDS; FIG. 11A.
Chain of mycobacterial proteasome (P9WHT9 58-291): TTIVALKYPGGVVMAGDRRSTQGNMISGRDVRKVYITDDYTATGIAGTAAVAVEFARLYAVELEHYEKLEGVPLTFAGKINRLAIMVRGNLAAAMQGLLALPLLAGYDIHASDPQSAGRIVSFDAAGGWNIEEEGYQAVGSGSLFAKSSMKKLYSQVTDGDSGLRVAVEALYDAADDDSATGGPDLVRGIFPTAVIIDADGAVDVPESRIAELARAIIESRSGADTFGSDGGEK
Chain of mycobacterial proteasome (P9WHU1 whole entry partner): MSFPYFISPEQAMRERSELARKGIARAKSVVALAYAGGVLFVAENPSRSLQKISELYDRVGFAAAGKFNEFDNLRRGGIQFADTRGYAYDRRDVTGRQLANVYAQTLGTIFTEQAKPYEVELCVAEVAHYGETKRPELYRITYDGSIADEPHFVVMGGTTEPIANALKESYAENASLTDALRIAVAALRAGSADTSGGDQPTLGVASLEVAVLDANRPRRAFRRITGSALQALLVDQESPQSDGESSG

Procedure for mycobacterial proteasome: To measure proteasomal protease activity, Mtb was lysed by agitation with zirconia silica beads. The soluble fraction was filtered through a 0.45 micron filter. Aliquots of the filtrate (120 g protein) were incubated with succinyl-leu-leu-val-tyr-alpha-methylcoumarin (SEQ ID NO: 1) in the presence of 0.05% SDS and fluorescence was monitored. […] The 50% inhibitory concentration was determined by applying the Hill equation to data from 2 experiments, each in triplicate.

Turning to `[N]=O` [nitric oxide], in the test with tubercle bacilli, the “potency of killing tubercle bacilli in vitro” value is recorded as roughly 150 nM.

For `CC(C)C[C@H](NC(=O)[C@H](Cc1cccc2ccccc12)NC(=O)N1CCOCC1)B(O)O` [MLN-273, N-[4-morpholine]carbonyl-β-[1-naphthyl]-L-alanine-L-leucine boronic acid], in the test with wt Mtb [1], the “augmentation of anti-mycobacterial activity of nitrite, inhibitor added only at the subculture” value was “just as effective”; the “augmentation of nitrite-mediated injury of wt Mtb” value is “augmented nitrite-mediated injury”; the “augmentation of the mycobacteriacidal effect of nitrite, inhibitors and nitrite removed simultaneously” value is recorded as “did not”; the “augmentation of anti-mycobacterial activity of nitrite, inhibitor added along with nitrite at day 0” value is on record as “increased the anti-mycobacterial activity of nitrite”. Besides, the “growth of Mtb under standard culture conditions” value in the test with wt Mtb [2] is reported as “suppressed the growth of Mtb”. The “outgrowth of Mtb in culture after nitrite” value with wt Mtb [3] is “enhanced the ability of nitrite to suppress outgrowth of Mtb”. In addition, at mycobacterial proteasome, the “inhibition of proteasomal protease activity in Mtb lysates” value is on record as “potently blocked proteasomal protease activity”.

As to `CC[C@H](C)[C@H](NC(=O)[C@H]([C@@H](C)CC)N(C)C(C)=O)C(=O)N[C@H](C(=O)N[C@@H](CC(C)C)C(=O)[C@@]1(C)CO1)[C@@H](C)O` [epoxomicin], in the test with wt Mtb [1], the “augmentation of anti-mycobacterial activity of nitrite, inhibitor added only at the subculture” value was “just as effective”; the “augmentation of the mycobacteriacidal effect of nitrite, inhibitors and nitrite removed simultaneously” value is “augmented the mycobacteriacidal effect of nitrite”; the “augmentation of anti-mycobacterial activity of nitrite, inhibitor added along with nitrite at day 0” value is reported as “increased the anti-mycobacterial activity of nitrite”.
